Measured values from patent US10844077B2, “Thiazolyl-containing compounds for treating proliferative diseases” (Dana-Farber Cancer Institute, Inc., priority 2014, dated 2020).

Legend:
Assay type in all cases: binding
broad panel of kinases [1] = target: broad panel of kinases (Homo sapiens, UniProt Q9NQU5); details: PAK6; 1 μM
broad panel of kinases [2] = target: broad panel of kinases (Homo sapiens, UniProt O14976); details: GAK; 1 μM
broad panel of kinases [3] = target: broad panel of kinases (Homo sapiens, UniProt O95819); details: MAP4K4; 1 μM
broad panel of kinases [4] = target: broad panel of kinases (Homo sapiens, UniProt P00519, Y253F); details: ABL1(Y253F)-phosphorylated; 1 μM
broad panel of kinases [5] = target: broad panel of kinases (Homo sapiens, UniProt P51617); details: IRAK1; 1 μM
broad panel of kinases [6] = target: broad panel of kinases (Homo sapiens, UniProt Q12866); details: MERTK; 1 μM
broad panel of kinases [7] = target: broad panel of kinases (Homo sapiens, UniProt P41743); details: PRKCI; 1 μM
Sequence of broad panel of kinases (Homo sapiens, UniProt P41743) (P41743 2-596 limits assumed): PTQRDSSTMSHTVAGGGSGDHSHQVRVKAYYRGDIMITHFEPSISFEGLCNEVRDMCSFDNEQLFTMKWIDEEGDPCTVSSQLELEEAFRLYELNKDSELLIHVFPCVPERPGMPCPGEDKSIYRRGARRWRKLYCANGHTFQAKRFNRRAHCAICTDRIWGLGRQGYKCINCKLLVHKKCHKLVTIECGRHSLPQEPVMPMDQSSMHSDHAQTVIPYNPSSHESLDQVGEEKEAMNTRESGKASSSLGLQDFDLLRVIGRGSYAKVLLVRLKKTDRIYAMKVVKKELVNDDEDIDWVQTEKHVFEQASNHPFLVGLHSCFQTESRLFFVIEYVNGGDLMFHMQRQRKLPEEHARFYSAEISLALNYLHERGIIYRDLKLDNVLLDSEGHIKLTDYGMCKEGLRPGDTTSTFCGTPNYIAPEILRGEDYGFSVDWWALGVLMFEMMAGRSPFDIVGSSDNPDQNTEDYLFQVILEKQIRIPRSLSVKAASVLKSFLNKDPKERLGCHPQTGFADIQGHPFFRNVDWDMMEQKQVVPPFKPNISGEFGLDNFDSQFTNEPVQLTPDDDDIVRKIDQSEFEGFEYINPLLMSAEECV

broad panel of kinases [8] = target: broad panel of kinases (Homo sapiens, UniProt Q9UBE8); details: NLK; 1 μM
broad panel of kinases [9] = target: broad panel of kinases (Homo sapiens, UniProt P36888, D835Y); details: FLT3(D835Y); 1 μM
broad panel of kinases [10] = target: broad panel of kinases (Homo sapiens, UniProt Q16288); details: TRKC; 1 μM
broad panel of kinases [11] = target: broad panel of kinases (Homo sapiens, UniProt Q13043); details: MST1; 1 μM
broad panel of kinases [12] = target: broad panel of kinases (Homo sapiens, UniProt P22607); details: FGFR3; 1 μM
broad panel of kinases [13] = target: broad panel of kinases (Homo sapiens, UniProt Q16584); details: MLK3; 1 μM
broad panel of kinases [14] = target: broad panel of kinases (Homo sapiens, UniProt P35590); details: TIE1; 1 μM
Sequence of broad panel of kinases (Homo sapiens, UniProt P35590) (P35590 22-1138 limits assumed): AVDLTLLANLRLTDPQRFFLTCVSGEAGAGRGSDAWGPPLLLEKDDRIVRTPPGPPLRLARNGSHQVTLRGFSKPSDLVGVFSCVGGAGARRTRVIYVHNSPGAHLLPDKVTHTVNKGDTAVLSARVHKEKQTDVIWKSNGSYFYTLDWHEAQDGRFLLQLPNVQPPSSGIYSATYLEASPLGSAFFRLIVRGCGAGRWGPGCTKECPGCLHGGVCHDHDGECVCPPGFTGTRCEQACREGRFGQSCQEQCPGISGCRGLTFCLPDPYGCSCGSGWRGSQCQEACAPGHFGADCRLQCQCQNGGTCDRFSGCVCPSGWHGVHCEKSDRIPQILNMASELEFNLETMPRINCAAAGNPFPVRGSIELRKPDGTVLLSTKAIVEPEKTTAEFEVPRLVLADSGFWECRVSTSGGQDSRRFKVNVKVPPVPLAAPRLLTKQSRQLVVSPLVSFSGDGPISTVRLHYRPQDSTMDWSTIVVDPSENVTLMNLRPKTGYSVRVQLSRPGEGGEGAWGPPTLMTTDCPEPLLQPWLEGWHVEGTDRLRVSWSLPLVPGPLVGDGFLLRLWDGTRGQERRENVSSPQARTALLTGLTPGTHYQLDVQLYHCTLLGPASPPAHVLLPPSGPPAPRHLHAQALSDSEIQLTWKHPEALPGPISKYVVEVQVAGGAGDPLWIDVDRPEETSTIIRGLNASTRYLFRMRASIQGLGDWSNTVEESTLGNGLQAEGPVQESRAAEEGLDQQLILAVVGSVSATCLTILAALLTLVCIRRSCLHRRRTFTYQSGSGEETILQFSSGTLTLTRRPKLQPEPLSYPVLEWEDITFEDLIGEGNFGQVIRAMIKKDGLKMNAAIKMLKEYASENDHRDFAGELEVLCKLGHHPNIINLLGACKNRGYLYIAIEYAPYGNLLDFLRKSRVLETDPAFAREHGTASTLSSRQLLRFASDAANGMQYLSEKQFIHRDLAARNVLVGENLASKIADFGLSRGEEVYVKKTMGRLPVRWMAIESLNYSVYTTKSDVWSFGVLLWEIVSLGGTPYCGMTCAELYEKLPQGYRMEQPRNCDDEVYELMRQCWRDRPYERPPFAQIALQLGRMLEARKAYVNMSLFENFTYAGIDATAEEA

broad panel of kinases [15] = target: broad panel of kinases (Homo sapiens, UniProt P19784); details: CSNK2A2; 1 μM
broad panel of kinases [16] = target: broad panel of kinases (Homo sapiens, UniProt O60285); details: ARK5; 1 μM
broad panel of kinases [17] = target: broad panel of kinases (Homo sapiens, UniProt Q9P286); details: PAK7; 1 μM
broad panel of kinases [18] = target: broad panel of kinases (Homo sapiens, UniProt Q9H093); details: SNARK; 1 μM
broad panel of kinases [19] = target: broad panel of kinases (Homo sapiens, UniProt Q06418); details: TYRO3; 1 μM
Sequence of broad panel of kinases (Homo sapiens, UniProt Q06418) (Q06418 41-890 limits assumed): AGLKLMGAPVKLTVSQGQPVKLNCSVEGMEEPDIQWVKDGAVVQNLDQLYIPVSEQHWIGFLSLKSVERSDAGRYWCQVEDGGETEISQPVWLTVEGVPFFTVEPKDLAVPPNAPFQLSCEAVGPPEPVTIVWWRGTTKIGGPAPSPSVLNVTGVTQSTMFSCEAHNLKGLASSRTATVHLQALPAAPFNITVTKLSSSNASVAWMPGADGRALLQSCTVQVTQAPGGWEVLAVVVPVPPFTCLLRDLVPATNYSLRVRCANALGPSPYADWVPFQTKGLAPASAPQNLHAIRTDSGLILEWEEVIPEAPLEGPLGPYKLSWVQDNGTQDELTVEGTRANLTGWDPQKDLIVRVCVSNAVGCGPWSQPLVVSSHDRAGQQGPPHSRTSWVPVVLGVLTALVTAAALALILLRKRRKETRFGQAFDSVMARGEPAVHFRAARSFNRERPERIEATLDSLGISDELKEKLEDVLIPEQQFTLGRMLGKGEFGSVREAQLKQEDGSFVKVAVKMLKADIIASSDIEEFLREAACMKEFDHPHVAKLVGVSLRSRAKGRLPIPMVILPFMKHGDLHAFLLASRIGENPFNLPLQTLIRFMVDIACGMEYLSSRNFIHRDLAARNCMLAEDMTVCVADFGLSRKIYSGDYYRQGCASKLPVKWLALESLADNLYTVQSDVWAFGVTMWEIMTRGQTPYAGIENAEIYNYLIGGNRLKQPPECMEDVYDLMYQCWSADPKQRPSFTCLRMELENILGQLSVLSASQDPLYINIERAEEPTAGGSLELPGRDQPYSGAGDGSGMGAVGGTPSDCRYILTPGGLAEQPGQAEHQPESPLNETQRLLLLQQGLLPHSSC

broad panel of kinases [20] = target: broad panel of kinases (Homo sapiens, UniProt Q8WU08); details: YANK1; 1 μM
broad panel of kinases [21] = target: broad panel of kinases (Homo sapiens, UniProt Q06187); details: BTK; 1 μM
broad panel of kinases [22] = target: broad panel of kinases (Homo sapiens, UniProt P08581, Y1235D); details: MET(Y1235D); 1 μM
broad panel of kinases [23] = target: broad panel of kinases (Homo sapiens, UniProt Q8N568); details: DCAMKL2; 1 μM
broad panel of kinases [24] = target: broad panel of kinases (Homo sapiens, UniProt Q04759); details: PRKCQ; 1 μM
broad panel of kinases [25] = target: broad panel of kinases (Homo sapiens, UniProt O14936); details: CASK; 1 μM
broad panel of kinases [26] = target: broad panel of kinases (Homo sapiens, UniProt Q96SB4); details: SRPK1; 1 μM
broad panel of kinases [27] = target: broad panel of kinases (Homo sapiens, UniProt P49841); details: GSK3B; 1 μM
broad panel of kinases [28] = target: broad panel of kinases (Homo sapiens, UniProt P48730); details: CSNK1D; 1 μM
broad panel of kinases [29] = target: broad panel of kinases (Homo sapiens, UniProt P27037); details: ACVR2A; 1 μM
broad panel of kinases [30] = target: broad panel of kinases (Homo sapiens, UniProt O15075); details: DCAMKL1; 1 μM
broad panel of kinases [31] = target: broad panel of kinases (Homo sapiens, UniProt Q8TD08); details: ERK8; 1 μM
broad panel of kinases [32] = target: broad panel of kinases (Homo sapiens, UniProt Q13873); details: BMPR2; 1 μM
broad panel of kinases [33] = target: broad panel of kinases (Homo sapiens, UniProt P45984); details: JNK2; 1 μM
broad panel of kinases [34] = target: broad panel of kinases (Homo sapiens, UniProt Q9Y5S2); details: MRCKB; 1 μM
broad panel of kinases [35] = target: broad panel of kinases (Homo sapiens, UniProt P07948); details: LYN; 1 μM
broad panel of kinases [36] = target: broad panel of kinases (Homo sapiens, UniProt Q13976); details: PRKG1; 1 μM
broad panel of kinases [37] = target: broad panel of kinases (Homo sapiens, UniProt Q8TD19); details: NEK9; 1 μM
Sequence of broad panel of kinases (Homo sapiens, UniProt Q8TD19) (Q8TD19 2-979 limits assumed): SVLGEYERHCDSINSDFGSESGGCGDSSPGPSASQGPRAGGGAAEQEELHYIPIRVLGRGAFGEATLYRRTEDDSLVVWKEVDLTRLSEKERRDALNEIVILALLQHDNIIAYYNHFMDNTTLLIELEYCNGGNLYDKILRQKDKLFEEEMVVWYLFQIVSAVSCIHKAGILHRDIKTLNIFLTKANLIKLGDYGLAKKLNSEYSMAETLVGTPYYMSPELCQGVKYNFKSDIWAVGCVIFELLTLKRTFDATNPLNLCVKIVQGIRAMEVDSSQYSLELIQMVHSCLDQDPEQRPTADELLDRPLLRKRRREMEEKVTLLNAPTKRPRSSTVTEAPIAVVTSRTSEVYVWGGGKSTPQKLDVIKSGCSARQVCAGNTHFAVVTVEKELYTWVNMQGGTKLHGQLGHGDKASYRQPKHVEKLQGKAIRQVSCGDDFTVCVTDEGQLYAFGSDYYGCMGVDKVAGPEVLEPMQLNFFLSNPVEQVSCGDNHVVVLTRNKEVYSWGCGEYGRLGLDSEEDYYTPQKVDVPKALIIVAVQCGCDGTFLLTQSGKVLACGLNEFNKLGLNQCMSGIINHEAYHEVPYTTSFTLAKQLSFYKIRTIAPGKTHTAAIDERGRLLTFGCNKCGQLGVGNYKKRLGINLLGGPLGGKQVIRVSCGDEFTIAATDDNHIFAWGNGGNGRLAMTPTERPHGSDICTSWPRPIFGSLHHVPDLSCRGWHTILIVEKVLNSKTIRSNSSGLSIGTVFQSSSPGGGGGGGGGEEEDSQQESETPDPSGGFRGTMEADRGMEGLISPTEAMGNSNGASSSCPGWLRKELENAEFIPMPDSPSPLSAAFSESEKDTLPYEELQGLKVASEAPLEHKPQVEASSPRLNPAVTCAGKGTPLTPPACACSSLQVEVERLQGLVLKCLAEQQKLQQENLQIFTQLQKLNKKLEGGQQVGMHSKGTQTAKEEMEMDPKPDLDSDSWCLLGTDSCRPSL

Sequence of broad panel of kinases (Homo sapiens, UniProt O14976) (O14976 2-1311 limits assumed): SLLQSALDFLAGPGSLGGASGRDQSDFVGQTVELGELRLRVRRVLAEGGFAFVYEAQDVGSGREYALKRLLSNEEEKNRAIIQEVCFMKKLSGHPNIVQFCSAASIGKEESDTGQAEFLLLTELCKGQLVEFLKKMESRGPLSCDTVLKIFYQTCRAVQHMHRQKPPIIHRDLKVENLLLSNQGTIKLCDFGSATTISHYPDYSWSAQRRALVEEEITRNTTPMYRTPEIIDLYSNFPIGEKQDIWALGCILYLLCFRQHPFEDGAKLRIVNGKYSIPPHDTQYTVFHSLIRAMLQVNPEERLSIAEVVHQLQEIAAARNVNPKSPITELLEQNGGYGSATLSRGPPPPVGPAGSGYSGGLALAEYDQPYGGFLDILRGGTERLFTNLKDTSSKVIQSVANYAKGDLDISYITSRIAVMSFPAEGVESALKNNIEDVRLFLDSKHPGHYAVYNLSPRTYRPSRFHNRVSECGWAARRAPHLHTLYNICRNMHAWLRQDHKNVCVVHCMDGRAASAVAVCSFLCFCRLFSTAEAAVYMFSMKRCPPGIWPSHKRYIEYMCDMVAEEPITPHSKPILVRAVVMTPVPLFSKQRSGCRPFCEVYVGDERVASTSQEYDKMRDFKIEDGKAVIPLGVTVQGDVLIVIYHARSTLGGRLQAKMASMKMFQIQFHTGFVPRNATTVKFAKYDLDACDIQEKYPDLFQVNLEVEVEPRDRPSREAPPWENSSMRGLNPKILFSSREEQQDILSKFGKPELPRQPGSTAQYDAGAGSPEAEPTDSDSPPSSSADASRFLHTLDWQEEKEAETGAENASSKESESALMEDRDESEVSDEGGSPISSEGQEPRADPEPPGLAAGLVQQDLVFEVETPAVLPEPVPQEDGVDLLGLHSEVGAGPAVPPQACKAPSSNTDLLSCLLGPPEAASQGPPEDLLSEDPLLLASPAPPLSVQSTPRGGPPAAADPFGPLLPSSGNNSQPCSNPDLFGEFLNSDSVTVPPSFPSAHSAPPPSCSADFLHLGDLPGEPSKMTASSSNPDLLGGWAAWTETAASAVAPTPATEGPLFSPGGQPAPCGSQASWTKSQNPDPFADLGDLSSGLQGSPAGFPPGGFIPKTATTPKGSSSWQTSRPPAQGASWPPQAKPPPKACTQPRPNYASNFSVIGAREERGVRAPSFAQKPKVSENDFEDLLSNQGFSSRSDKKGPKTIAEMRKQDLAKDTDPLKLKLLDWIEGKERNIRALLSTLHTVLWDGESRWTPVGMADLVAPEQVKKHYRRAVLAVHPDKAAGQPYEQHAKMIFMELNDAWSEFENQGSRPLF

SMILES | percent of control binding remaining (lower = stronger binding) (broad panel of kinases [1]) | percent of control binding remaining (lower = stronger binding) (broad panel of kinases [2]) | percent of control binding remaining (lower = stronger binding) (broad panel of kinases [3]) | percent of control binding remaining (lower = stronger binding) (broad panel of kinases [5]) | percent of control binding remaining (lower = stronger binding) (broad panel of kinases [6]) | percent of control binding remaining (lower = stronger binding) (broad panel of kinases [7]) | percent of control binding remaining (lower = stronger binding) (broad panel of kinases [8]) | percent of control binding remaining (lower = stronger binding) (broad panel of kinases [9]) | percent of control binding remaining (lower = stronger binding) (broad panel of kinases [10]) | percent of control binding remaining (lower = stronger binding) (broad panel of kinases [11]) | percent of control binding remaining (lower = stronger binding) (broad panel of kinases [13]) | percent of control binding remaining (lower = stronger binding) (broad panel of kinases [14]) | percent of control binding remaining (lower = stronger binding) (broad panel of kinases [15]) | percent of control binding remaining (lower = stronger binding) (broad panel of kinases [16]) | percent of control binding remaining (lower = stronger binding) (broad panel of kinases [17]) | percent of control binding remaining (lower = stronger binding) (broad panel of kinases [18]) | percent of control binding remaining (lower = stronger binding) (broad panel of kinases [19]) | percent of control binding remaining (lower = stronger binding) (broad panel of kinases [20]) | percent of control binding remaining (lower = stronger binding) (broad panel of kinases [21]) | percent of control binding remaining (lower = stronger binding) (broad panel of kinases [22]) | further results
C=CC(=O)N1CC[C@H](Nc2nc(CN3CCOCC3)cc(Nc3ncc(C(=O)Nc4c(C)cccc4C)s3)n2)C1 [Example I-2] | 93% | 11% | 96% | 84% | 90% | 94% | 11% | 97% | 99% | 100% | 100% | 100% | 57% | 99% | 96% | 100% | 41% | 100% | 0% | 95% | percent of control binding remaining (lower = stronger binding) (broad panel of kinases [4]): 0.1%; percent of control binding remaining (lower = stronger binding) (broad panel of kinases [12]): 99%; percent of control binding remaining (lower = stronger binding) (broad panel of kinases [23]): 98%; percent of control binding remaining (lower = stronger binding) (broad panel of kinases [24]): 94%; percent of control binding remaining (lower = stronger binding) (broad panel of kinases [25]): 100%; percent of control binding remaining (lower = stronger binding) (broad panel of kinases [26]): 91%; percent of control binding remaining (lower = stronger binding) (broad panel of kinases [27]): 100%; percent of control binding remaining (lower = stronger binding) (broad panel of kinases [28]): 100%; percent of control binding remaining (lower = stronger binding) (broad panel of kinases [29]): 76%; percent of control binding remaining (lower = stronger binding) (broad panel of kinases [30]): 87%; percent of control binding remaining (lower = stronger binding) (broad panel of kinases [31]): 97%; percent of control binding remaining (lower = stronger binding) (broad panel of kinases [32]): 100%; percent of control binding remaining (lower = stronger binding) (broad panel of kinases [33]): 100%; percent of control binding remaining (lower = stronger binding) (broad panel of kinases [34]): 89%; percent of control binding remaining (lower = stronger binding) (broad panel of kinases [35]): 0%; percent of control binding remaining (lower = stronger binding) (broad panel of kinases [36]): 100%; percent of control binding remaining (lower = stronger binding) (broad panel of kinases [37]): 100%
C=CC(=O)N1CC[C@H](Nc2nccc(Nc3ncc(C(=O)Nc4c(C)cccc4C)s3)n2)C1 [Example I-3] | 84% | 11% | 96% | 93% | 100% | 90% | 9.4% | 100% | 96% | 97% | 85% | 100% | 70% | 100% | 97% | 100% | 41% | 84% | 0.05% | 92% | % change compared to control (broad panel of kinases [4]): 0.1%; % change compared to control (broad panel of kinases [12]): 100%; percent of control binding remaining (lower = stronger binding) (broad panel of kinases [23]): 93%; percent of control binding remaining (lower = stronger binding) (broad panel of kinases [24]): 98%; percent of control binding remaining (lower = stronger binding) (broad panel of kinases [25]): 98%; percent of control binding remaining (lower = stronger binding) (broad panel of kinases [26]): 96%; percent of control binding remaining (lower = stronger binding) (broad panel of kinases [27]): 100%; percent of control binding remaining (lower = stronger binding) (broad panel of kinases [28]): 99%; percent of control binding remaining (lower = stronger binding) (broad panel of kinases [29]): 82%; percent of control binding remaining (lower = stronger binding) (broad panel of kinases [30]): 84%; percent of control binding remaining (lower = stronger binding) (broad panel of kinases [31]): 99%; percent of control binding remaining (lower = stronger binding) (broad panel of kinases [32]): 100%; percent of control binding remaining (lower = stronger binding) (broad panel of kinases [33]): 90%; percent of control binding remaining (lower = stronger binding) (broad panel of kinases [34]): 100%; percent of control binding remaining (lower = stronger binding) (broad panel of kinases [35]): 0.1%; percent of control binding remaining (lower = stronger binding) (broad panel of kinases [36]): 100%; percent of control binding remaining (lower = stronger binding) (broad panel of kinases [37]): 100%
